From patent US8618153B2, “Hepatitis C virus inhibitors” (Bristol-Myers Squibb Company, priority 2009, dated 2013)

System: HCV 1b genotype
Assay: HCV Replicon assay (HCV-neo replicon cells), 1b genotype
Type: cell-based
Conditions: Hepatitis C virus; HCV 1b genotype replicon; numeric value; read-out: 1b EC50 (in μM or range)
Procedure: An HCV Replicon assay was utilized in the present disclosure, and was prepared, conducted and validated as described in commonly owned PCT/US2006/022197 and in O'Boyle et al., Antimicrob. Agents Chemother., 49(4):1346-1353 (April 2005). Assay methods incorporating luciferase reporters have also been used as described (Apath.com).
HCV-neo replicon cells and replicon cells containing mutations in the NS5A region were used to test the currently described family of compounds. The compounds were determined to have more than 10-fold less inhibitory activity on cells containing mutations than wild-type cells. Thus, the compounds of the present disclosure can be effective in inhibiting the function of the HCV NS5A protein and are understood to be as effective in combinations as previously described in application PCT/US2006/022197 and commonly owned WO 04/014852. Further, the compounds of the present disclosure can be effective against the HCV 1b genotype. It should also be understood that the compounds of the present disclosure can inhibit multiple genotypes of HCV. […] In one embodiment compounds of the present disclosure are inhibitory versus 1a, 1b, 2a, 2b, 3a, 4a, and 5a genotypes. […] The compounds of the present disclosure may inhibit HCV by mechanisms in addition to or other than NS5A inhibition. In one embodiment the compounds of the present disclosure inhibit HCV replicon and in another embodiment the compounds of the present disclosure inhibit NS5A.

With `C[C@H](NC(=O)[C@@H](c1ccccc1)N(C)C)c1ncc(-c2cccc(-c3cnc(-c4c[nH]c([C@@H]5CCCN5C(=O)[C@@H](c5ccccc5)N(C)C)n4)o3)c2)[nH]1` [Example 24, (2R)-2-(Dimethylamino)-N-((1S)-1-(4-(3-(2-(2-((2S)-1-((2R)-2-(dimethylamino)-2-phenylacetyl)-2-pyrrolidinyl)-1H-imidazol-4-yl)-1,3-oxazol-5-yl)phenyl)-1H-imidazol-2-yl)ethyl)-2-phenylacetamide] as the molecule, how does the EC50 read?
Its EC50 is 0.00181 µM.

How did the EC50 turn out when `COC(=O)N[C@@H](C(=O)N1CCC[C@H]1c1ncc(-c2ccc(-c3cnc(-c4c[nH]c([C@@H]5CCCN5C(=O)OCc5ccccc5)n4)o3)cc2)[nH]1)c1ccccc1` [Example 27, Benzyl (2S)-2-(4-(5-(4-(2-((2S)-1-((2R)-2-((methoxycarbonyl)amino)-2-phenylacetyl)-2-pyrrolidinyl)-1H-imidazol-4-yl)phenyl)-1,3-oxazol-2-yl)-1H-imidazol-2-yl)-1-pyrrolidinecarboxylate] was run?
The EC50 was 0.00671 µM.

Same assay, conditions: Hepatitis C virus; HCV 1b genotype replicon; value given as range class; read-out: 1b EC50 (in μM or range)

With `CN(C)[C@@H](C(=O)N1CCC[C@H]1c1ncc(CCc2ccc(-c3cnc([C@@H]4CCCN4C(=O)[C@@H](c4ccccc4)N(C)C)[nH]3)cc2)[nH]1)c1ccccc1` [Example M3, [(1R)-2-((2S)-2-(4-(4-(2-(2-((2S)-1-((2R)-2-(Dimethylamino)-2-phenylacetyl)-2-pyrrolidinyl)-1H-imidazol-4-yl)ethyl)phenyl)-1H-imidazol-2-yl)-1-pyrrolidinyl)-N,N-dimethyl-2-oxo-1-phenylethanamine]] as the molecule, how does the EC50 read?
Its EC50 is 0.001 to 0.01 µM.

`CN(C)[C@@H](C(=O)N1CCC[C@H]1c1ncc(-c2cnc(-c3ncc(-c4cnc([C@@H]5CCCN5C(=O)[C@@H](c5ccccc5)N(C)C)[nH]4)s3)s2)[nH]1)c1ccccc1` [Example 17, (1R,1′R)-2,2′-(2,2′-Bi-1,3-thiazole-5,5′-diylbis(1H-imidazole-4,2-diyl(2S)-2,1-pyrrolidinediyl))bis(N,N-dimethyl-2-oxo-1-phenylethanamine)] was tested. Which EC50 did it give?
The EC50 was under 0.001 µM.

Which EC50 does the source give for `COC(=O)N[C@@H](C(=O)N1CCC[C@H]1c1ncc(C#CC#Cc2cnc([C@@H]3CCCN3C(=O)[C@H](NC(=O)OC)c3ccccc3)[nH]2)[nH]1)c1ccccc1` [Example 29, Dimethyl (1R,1′R)-2,2′-((2S,2′S)-2,2′-(5,5′-(buta-1,3-diyne-1,4-diyl)bis(1H-imidazole-5,2-diyl))bis(pyrrolidine-2,1-diyl))bis(2-oxo-1-phenylethane-2,1-diyl)dicarbamate] here?
The EC50 was under 0.001 µM.

`COC(=O)N[C@H](C(=O)N1CCC[C@H]1c1nc(CCc2ccc(CCc3cnc([C@@H]4CCCN4C(=O)[C@@H](NC(=O)OC)C(C)C)[nH]3)cc2)c[nH]1)C(C)C` [Example 43, methyl ((1S)-1-(((2S)-2-(4-(2-(4-(2-(2-((2S)-1-((2S)-2-((methoxycarbonyl)amino)-3-methylbutanoyl)-2-pyrrolidinyl)-1H-imidazol-4-yl)ethyl)phenyl)ethyl)-1H-imidazol-2-yl)-1-pyrrolidinyl)carbonyl)-2-methylpropyl)carbamate] was tested. Which EC50 did it give?
Its EC50 is 0.001 to 0.01 µM.

For `COC(=O)N[C@H](C(=O)N1CCC[C@H]1c1ncc(C#CC#Cc2cnc([C@@H]3CCCN3C(=O)[C@@H](NC(=O)OC)C(C)C)[nH]2)[nH]1)C(C)C` [Example 31, Dimethyl (2S,2′S)-1,1′-((2S,2′S)-2,2′-(5,5′-(buta-1,3-diyne-1,4-diyl)bis(1H-imidazole-5,2-diyl))bis(pyrrolidine-2,1-diyl))bis(3-methyl-1-oxobutane-2,1-diyl)dicarbamate], which EC50 is on record?
Its EC50 is under 0.001 µM.

With `COC(=O)N[C@@H](C)C(=O)N1CCC[C@H]1c1nc(/C=C/c2ccc(/C=C/c3cnc([C@@H]4CCCN4C(=O)[C@H](C)NC(=O)OC)[nH]3)cc2)c[nH]1` [Example 37, methyl ((1S)-2-((2S)-2-(4-((E)-2-(4-((E)-2-(2-((2S)-1-(N-(methoxycarbonyl)-L-alanyl)-2-pyrrolidinyl)-1H-imidazol-4-yl)vinyl)phenyl)vinyl)-1H-imidazol-2-yl)-1-pyrrolidinyl)-1-methyl-2-oxoethyl)carbamate] as the molecule, how does the EC50 read?
The EC50 was under 0.001 µM.

With `COC(=O)N[C@@H](C(=O)N1CCC[C@H]1c1nc(-c2ncc(-c3ccc(-c4cnc([C@@H]5CCCN5C(=O)[C@H](NC(=O)OC)c5ccccc5)[nH]4)cc3)o2)c[nH]1)c1ccccc1` [Example 25, Methyl ((1R)-2-((2S)-2-(4-(4-(2-(2-((2S)-1-((2R)-2-((methoxycarbonyl)amino)-2-phenylacetyl)-2-pyrrolidinyl)-1H-imidazol-4-yl)-1,3-oxazol-5-yl)phenyl)-1H-imidazol-2-yl)-1-pyrrolidinyl)-2-oxo-1-phenylethyl)carbamate] as the molecule, how does the EC50 read?
The EC50 was 0.001 to 0.01 µM.

`COC(=O)N[C@H](C(=O)N1CCC[C@H]1c1ncc(C#Cc2ccc(C#Cc3cnc([C@@H]4CCCN4C(=O)[C@@H](NC(=O)OC)C(C)C)[nH]3)cc2)[nH]1)C(C)C` [Example M4, Methyl((1S)-1-(((2S)-2-(4-((4-((2-((2S)-1-((2S)-2-((methoxycarbonyl)amino)-3-methylbutanoyl)-2-pyrrolidinyl)-1H-imidazol-4-yl)ethynyl)phenyl)ethynyl)-1H-imidazol-2-yl)-1-pyrrolidinyl)carbonyl)-2-methylpropyl)carbamate] was tested. Which EC50 did it give?
The EC50 was under 0.001 µM.

With `COC(=O)N[C@@H](C)C(=O)N1CCC[C@H]1c1nc(C#Cc2ccc(C#Cc3c[nH]c([C@@H]4CCCN4C(=O)[C@H](C)NC(=O)OC)n3)cc2)c[nH]1` [Example M6, Methyl ((1S)-2-((2S)-2-(4-((4-((2-((2S)-1-(N-(methoxycarbonyl)-L-alanyl)-2-pyrrolidinyl)-1H-imidazol-4-yl)ethynyl)phenyl)ethynyl)-1H-imidazol-2-yl)-1-pyrrolidinyl)-1-methyl-2-oxoethyl)carbamate] as the molecule, how does the EC50 read?
Its EC50 is 0.001 to 0.01 µM.

`O=C([C@@H](c1ccccc1)N1CCCCC1)N1CCC[C@H]1c1ncc(C#CC#Cc2cnc([C@@H]3CCCN3C(=O)[C@@H](c3ccccc3)N3CCCCC3)[nH]2)[nH]1` [Example 30, (2R,2′R)-1,1′-((2S,2′S)-2,2′-(5,5′-(Buta-1,3-diyne-1,4-diyl)bis(1H-imidazole-5,2-diyl))bis(pyrrolidine-2,1-diyl))bis(2-phenyl-2-(piperidin-1-yl)ethanone)] was tested. Which EC50 did it give?
The EC50 was under 0.001 µM.

For `COC(=O)N[C@H](C(=O)N1CCC[C@H]1c1ncc(-c2ccc(-c3ccc(-c4cnc([C@@H]5CCCN5C(=O)[C@@H](NC(=O)OC)C5CC5)[nH]4)s3)s2)[nH]1)C1CC1` [Example 7, Dimethyl (2,2′-bithiene-5,5′-diylbis(1H-imidazole-4,2-diyl(2S)-2,1-pyrrolidinediyl((1S)-1-cyclopropyl-2-oxo-2,1-ethanediyl)))biscarbamate], which EC50 is on record?
Its EC50 is under 0.001 µM.

`COCC[C@H](NC(=O)OC)C(=O)N1CCC[C@H]1c1nc(C#Cc2ccc(C#Cc3c[nH]c([C@@H]4CCCN4C(=O)[C@H](CCOC)NC(=O)OC)n3)cc2)c[nH]1` [Example M7, Methyl ((1S)-3-methoxy-1-(((2S)-2-(4-((4-((2-((2S)-1-(N-(methoxycarbonyl)-O-methyl-L-homoseryl)-2-pyrrolidinyl)-1H-imidazol-4-yl)ethynyl)phenyl)ethynyl)-1H-imidazol-2-yl)-1-pyrrolidinyl)carbonyl)propyl)carbamate] was tested. Which EC50 did it give?
Its EC50 is under 0.001 µM.

Which EC50 does the source give for `COC(=O)N[C@H](C(=O)N1CCC[C@H]1c1ncc(C#Cc2ccc(-c3ccc(-c4cnc([C@@H]5CCCN5C(=O)[C@@H](NC(=O)OC)C(C)C)[nH]4)cc3)cc2)[nH]1)C(C)C` [Example 33, Methyl ((1S)-1-(((2S)-2-(4-(4′-((2-((2S)-1-((2S)-2-((methoxycarbonyl)amino)-3-methylbutanoyl)-2-pyrrolidinyl)-1H-imidazol-4-yl)ethynyl)-4-biphenylyl)-1H-imidazol-2-yl)-1-pyrrolidinyl)carbonyl)-2-methylpropyl)carbamate] here?
The EC50 was under 0.001 µM.
